Like-named read-outs stand apart in the source and are kept apart here. Blank lines part the entries; values can stand above or below the compound they belong to. Where no end group is shown, it is not given here.
Legend:
Test in all cases: MHC II competition binding assay
DRB1*0301 = molecular target: T1, DRB1*0301 (Homo sapiens, UniProt P01903+P01911, A100K/A102G/A103R/A169T/F55Y/I96L/K41T/L162R/M171V/P40S/Q125H/Q178H/Q39Y/R42S/S66N/T106N/T262R/W38E/Y61H)
T1 construct: purchased Benaroya Research Institute (Seattle, Wash.)
Experimental: (§1) MHC Binding Assays. MHC II competition binding assays were performed using a 384-well high throughput assay as previously described (Salvat, et al. (2014) supra). Binding assays were performed for the eight alleles: DRB1*0101, 0301, 0401, 0701, 0801, 1101, 1301, and 1501. Briefly, 100 nM biotinylated control peptides composed of known peptide antigens for each MHC II allele were incubated in polypropylene 384-well plates with 50 nM purified recombinant MHC II protein and serial dilutions of LST or variant peptide fragments (100 μM to 10 nM). Peptide-MHC II complexes were captured from equilibrated solutions using the conformation specific anti-HLA-DR antibody L243 coated on high binding ELISA plates. Bound control peptide was quantified using the DELFIA streptavidin-Europium conjugate and time resolved fluorescence (SpectraMax Gemini Fluorescence Microplate Reader).

DRB1*0401 = molecular target: T2, DRB1*0401 (Homo sapiens, UniProt P01903+P01911, A100K/A169T/F76Y/I96L/K127E/L162R/M171V/N62H/P40V/Q125Y/R42H/S133A/S149N/S66Y/V115G/V209L/W38E)
T2 construct: purchased Benaroya Research Institute (Seattle, Wash.)
Experimental: as §1

DRB1*0801 = DRB1*0801 (Homo sapiens, UniProt P01903+P01911, A100R/A103L/A169T/D86S/F76Y/H45Y/I96F/K41T/L162R/M171V/P40S/Q125H/Q178H/Q39Y/Q99D/R218S/R42G/S66Y/V115G/W38E)
Experimental: as §1

DRB1*1101 = DRB1*1101 (Homo sapiens, UniProt P01903+P01911, A100R/A169T/A87E/I96F/K41T/L162R/M171V/P40S/Q125H/Q178H/Q39Y/Q99D/R42S/S66Y/T262R/V115G/W38E)
Experimental: as §1

DRB1*1301 = DRB1*1301 (Homo sapiens, UniProt P01903+P01911, A100E/A169T/K41T/L162R/M171V/P40S/Q125H/Q178H/Q39Y/Q99D/R42S/S66N/T262R/W38E/Y61H)
Experimental: as §1

DRB1*1501 = molecular target: T3, DRB1*1501 (Homo sapiens, UniProt P01903+P01911)
T3 construct: purchased Benaroya Research Institute (Seattle, Wash.)
Experimental: as §1, with “MHC II competition binding assays were performed using a 384-well high throughput assay as previously described (Salvat, et al. (2014) supra). Binding assays were performed for the eight alleles: DRB1*0101, 0301, 0401, 0701, 0801, 1101, 1301, and 1501.” left out

DRB1*0101 = molecular target: T4, DRB1*0101 (Homo sapiens, UniProt P01903+P01911, A100R/D57E/F55L/F60I/F76Y/I96L/L162R/M171V/P40L/Q125E/R42F/V115G/Y59C)
T4 construct: purchased Benaroya Research Institute (Seattle, Wash.)
Experimental: as §1

DRB1*0701 = DRB1*0701 (Homo sapiens, UniProt P01903+P01911, A100R/A102G/A103Q/D57E/D86V/E43K/F76Y/K127E/L162R/M171V/P40G/Q125H/Q99D/R33Q/R42Y/R54Q/S133A/S66F/T210M/V115G/Y107V/Y59L/Y89S)
Experimental: as §1

[1] = synthetic peptide competing with biotinylated control peptide, read-out: IC50 0301
[2] = synthetic peptide competing with biotinylated control peptide, read-out: IC50 0401
[3] = synthetic peptide competing with biotinylated control peptide, read-out: IC50 0801

Compound: DHVKAGQIIGWSGSTGY [Peptide Y93H]
- IC50 (DRB1*0301): > 250 µM
- IC50 (DRB1*0401): > 250 µM
- IC50 (DRB1*0801): > 250 µM
- IC50 (DRB1*1101): > 250 µM
- IC50 (DRB1*1301): > 250 µM
- IC50 (DRB1*1501): < 0.01 µM

Compound: HLHFQTMVNSFSNPTAQ [Peptide R118T]
- IC50 (DRB1*0101): < 0.01 µM
- IC50 (DRB1*0301): 68.4 µM
- IC50 (DRB1*0401): < 0.01 µM
- IC50 (DRB1*0701): 23.1 µM
- IC50 (DRB1*0801): 57.7 µM
- IC50 (DRB1*1101): < 0.01 µM
- IC50 (DRB1*1301): > 250 µM
- IC50 (DRB1*1501): < 0.01 µM

- IC50 (DRB1*0301; DRB1*0301, read-out: IC50): > 250 µM
- IC50 (DRB1*0401; DRB1*0401, read-out: IC50): 0.05 µM
- IC50 (DRB1*0701; DRB1*0701, read-out: IC50): 15.2 µM
- IC50 (DRB1*0801; DRB1*0801, read-out: IC50): 22 µM
- IC50 (DRB1*1101; DRB1*1101, read-out: IC50): < 0.01 µM
- IC50 (DRB1*1301; DRB1*1301, read-out: IC50): > 250 µM
- IC50 (DRB1*1501; DRB1*1501, read-out: IC50): < 0.01 µM
Compound: HLHFQRMVNSFSNPTAQ [Design C5WT]

- binder class DRB1*1301 (DRB1*1301): weakly
Compound: CSCC[C@H](NC(=O)[C@H](Cc1ccc(O)cc1)NC(=O)[C@H](Cc1c[nH]c2ccccc12)NC(=O)[C@H](CCC(N)=O)NC(=O)[C@H](CCCNC(=N)N)NC(=O)[C@H](Cc1c[nH]cn1)NC(=O)[C@@H](NC(=O)CN)C(C)C)C(=O)N[C@@H](Cc1c[nH]cn1)C(=O)N[C@@H](CC(C)C)C(=O)N[C@@H](CO)C(=O)N[C@@H](CCCCN)C(=O)N[C@@H](Cc1ccc(O)cc1)C(=O)N[C@@H](CC(N)=O)C(=O)N[C@H](C(=O)N[C@@H](CCCCN)C(=O)N[C@H](C(=O)NCC(=O)N[C@@H](CC(=O)O)C(=O)O)C(C)C)C(C)C [Design C3WT]
- binder class DRB1*0101 (DRB1*0101): strong (strong binder if an IC50 value of less than 0.1 μM was observed)
- binder class DRB1*0701 (DRB1*0701): strong (strong binder if an IC50 value of less than 0.1 μM was observed)
- binder class DRB1*1501 (DRB1*1501): weak (weak if an IC50 value was in the 1-10 μM range)

- IC50 (DRB1*0101; DRB1*0101, read-out: IC50): < 0.01 µM
- IC50 (DRB1*0301; DRB1*0301, read-out: IC50): > 250 µM
- IC50 (DRB1*0701; DRB1*0701, read-out: IC50): 104 µM
- IC50 (DRB1*0801; DRB1*0801, read-out: IC50): > 250 µM
- IC50 (DRB1*1301; DRB1*1301, read-out: IC50): > 250 µM
- IC50 (DRB1*1501; DRB1*1501, read-out: IC50): < 0.01 µM
Compound: DYVEAGQQIGWSGSTGY [Peptide 95-99]

- IC50 (DRB1*0101; synthetic peptide competing with biotinylated control peptide, read-out: IC50 0101): > 250 µM
- IC50 (DRB1*0301; [1]): > 250 µM
- IC50 (DRB1*0401; [2]): > 250 µM
- IC50 (DRB1*0701; synthetic peptide competing with biotinylated control peptide, read-out: IC50 0701): > 250 µM
- IC50 (DRB1*0801; [3]): > 250 µM
- IC50 (DRB1*1501; synthetic peptide competing with biotinylated control peptide, read-out: IC50 1501): > 250 µM
Compound: SAQWLNHYKKGYGYG [Design N13H]

- IC50 (DRB1*0301; [1]): > 250 µM
- IC50 (DRB1*0801; [3]): > 250 µM
Compound: GVDFFMNEGTPVKAISSGKIV [Design 141E]

Compound: HLHFQRMVGDFGNPTAQ [Peptide 212224]
- IC50 (DRB1*0101): 0.18 µM
- IC50 (DRB1*0301): 116 µM
- IC50 (DRB1*0401): 5.55 µM
- IC50 (DRB1*0701): > 250 µM
- IC50 (DRB1*0801): > 250 µM
- IC50 (DRB1*1101): 13.4 µM
- IC50 (DRB1*1301): > 250 µM
- IC50 (DRB1*1501): 24.2 µM

- fold decrease in binding vs wild-type peptide, 0701 (DRB1*0701): two-fold
- fold decrease in binding vs wild-type peptide, 0801 (DRB1*0801): approximately five-fold
- fold reduction in binding vs wild-type peptide, 1101 (DRB1*1101): ten-fold
Compound: Leu83Met: full-length lysostaphin single point mutant
- binder class DRB1*0101 (DRB1*0101): weak (weak if an IC50 value was in the 1-10 μM range)
- binder class DRB1*0301 (DRB1*0301): non-binder (All peptides above 10 μM were considered non-binders)
- binder class DRB1*0701 (DRB1*0701): moderate (moderate if an IC50 value was in the 0.1-1 μM range)
- binder class DRB1*1301 (DRB1*1301): weak (weak if an IC50 value was in the 1-10 μM range)
- binder class DRB1*1501 (DRB1*1501): moderate (moderate if an IC50 value was in the 0.1-1 μM range)

- IC50 (DRB1*0401; [2]): 13.7 µM
- IC50 (DRB1*0801; [3]): > 250 µM
- IC50 (DRB1*1301; synthetic peptide competing with biotinylated control peptide, read-out: IC50 1301): 104 µM
Compound: GVDFFMNIGTPVKAISSGKIV [Design C2WT]

Compound: HLHFQTMVNDFGNPTAQ [Peptide 182224]
- IC50 (DRB1*0101): 7.43 µM
- IC50 (DRB1*0301): 133 µM
- IC50 (DRB1*0401): 7.52 µM
- IC50 (DRB1*0701): > 250 µM
- IC50 (DRB1*0801): > 250 µM
- IC50 (DRB1*1101): 14.1 µM
- IC50 (DRB1*1301): > 250 µM
- IC50 (DRB1*1501): 0.42 µM

Compound: HLHFQRMVGDFSNPTAQ [Peptide 21_22]
- IC50 (DRB1*0101): < 0.01 µM
- IC50 (DRB1*0301): 77.4 µM
- IC50 (DRB1*0401): < 0.01 µM
- IC50 (DRB1*0701): > 250 µM
- IC50 (DRB1*0801): 210 µM
- IC50 (DRB1*1101): 28.5 µM
- IC50 (DRB1*1301): > 250 µM
- IC50 (DRB1*1501): < 0.01 µM

- IC50 (DRB1*0101; DRB1*0101, read-out: IC50): < 0.01 µM
- IC50 (DRB1*0301; DRB1*0301, read-out: IC50): > 250 µM
- IC50 (DRB1*0801; DRB1*0801, read-out: IC50): > 250 µM
- IC50 (DRB1*1301; DRB1*1301, read-out: IC50): > 250 µM
- IC50 (DRB1*1501; DRB1*1501, read-out: IC50): < 0.01 µM
Compound: HLHFQRMVNSFGNPTAQ [Peptide S124G]

Compound: HLHFQRMVGSFSNPTAQ [Peptide N121G]
- IC50 (DRB1*0101; DRB1*0101, read-out: IC50): < 0.01 µM
- IC50 (DRB1*0301; DRB1*0301, read-out: IC50): > 250 µM
- IC50 (DRB1*0401; DRB1*0401, read-out: IC50): 6.13 µM
- IC50 (DRB1*0701; DRB1*0701, read-out: IC50): 17.4 µM
- IC50 (DRB1*0801; DRB1*0801, read-out: IC50): > 250 µM
- IC50 (DRB1*1101; DRB1*1101, read-out: IC50): 6.41 µM
- IC50 (DRB1*1301; DRB1*1301, read-out: IC50): > 250 µM
- IC50 (DRB1*1501): < 0.01 µM

Compound: DYVEAGQIIGWSGSTGY [Peptide K95E]
- IC50 (DRB1*0101): < 0.01 µM
- IC50 (DRB1*0401): < 0.01 µM
- IC50 (DRB1*1501): < 0.01 µM

From patent publication US11091749B2, “Deimmunized lysostaphin and methods of use” (TRUSTEES OF DARTMOUTH COLLEGE, priority 2014, dated 2021)
